Measured values published in ChEMBL document CHEMBL1143194, “The 1,4-benzodiazepine-2,5-dione small molecule template results in melanocortin receptor agonists with nanomolar potencies” (J Med Chem, 2008).

Tests used:
[1] = target: Melanocyte-stimulating hormone receptor (Mus musculus, UniProt Q01727); assay: Agonist activity at mouse MC1R expressed in HEK293 cells assessed as forskolin-stimulated response by beta-galactosidase reporter gene assay; type: functional, cell-based
Melanocortin receptor 4 = Melanocortin receptor 4 (Mus musculus, UniProt P56450); assay: Agonist activity at mouse MC4R expressed in HEK293 cells assessed as forskolin-stimulated response by beta-galactosidase reporter gene assay; type: functional, cell-based
Melanocortin receptor 5 = Melanocortin receptor 5 (Mus musculus, UniProt P41149); assay: Agonist activity at mouse MC5R expressed in HEK293 cells assessed as forskolin-stimulated response by beta-galactosidase reporter gene assay; type: functional, cell-based
[2] = target: Melanocortin receptor 3 (Mus musculus) (UniProt P33033); assay: Agonist activity at mouse MC3R expressed in HEK293 cells assessed as forskolin-stimulated response at 100 uM by beta-galactosidase reporter gene assay relative to forskolin; type: functional, cell-based
Melanocortin receptor 3 = Melanocortin receptor 3 (Mus musculus, UniProt P33033); assay: Agonist activity at mouse MC3R expressed in HEK293 cells assessed as forskolin-stimulated response by beta-galactosidase reporter gene assay; type: functional, cell-based
[3] = target: Melanocyte-stimulating hormone receptor (Mus musculus) (UniProt Q01727); assay: Agonist activity at mouse MC1R expressed in HEK293 cells assessed as forskolin-stimulated response at 100 uM by beta-galactosidase reporter gene assay relative to forskolin; type: functional, cell-based
[4] = target: Melanocortin receptor 4 (Mus musculus) (UniProt P56450); assay: Agonist activity at mouse MC4R expressed in HEK293 cells assessed as forskolin-stimulated response at 100 uM by beta-galactosidase reporter gene assay relative to forskolin; type: functional, cell-based
[5] = target: Melanocortin receptor 5 (Mus musculus) (UniProt P41149); assay: Agonist activity at mouse MC5R expressed in HEK293 cells assessed as forskolin-stimulated response at 10 uM by beta-galactosidase reporter gene assay relative to forskolin; type: functional, cell-based
[6] = target: Melanocortin receptor 5 (Mus musculus) (UniProt P41149); assay: Agonist activity at mouse MC5R expressed in HEK293 cells assessed as forskolin-stimulated response at 100 uM by beta-galactosidase reporter gene assay relative to forskolin; type: functional, cell-based
Mus musculus [7] = species on record: Mus musculus; assay: Selectivity for mouse MC1R over mouse MC3R
Mus musculus [8] = species on record: Mus musculus; assay: Selectivity for mouse MC1R over mouse MC4R

Chain of Melanocyte-stimulating hormone receptor (Q01727 whole entry): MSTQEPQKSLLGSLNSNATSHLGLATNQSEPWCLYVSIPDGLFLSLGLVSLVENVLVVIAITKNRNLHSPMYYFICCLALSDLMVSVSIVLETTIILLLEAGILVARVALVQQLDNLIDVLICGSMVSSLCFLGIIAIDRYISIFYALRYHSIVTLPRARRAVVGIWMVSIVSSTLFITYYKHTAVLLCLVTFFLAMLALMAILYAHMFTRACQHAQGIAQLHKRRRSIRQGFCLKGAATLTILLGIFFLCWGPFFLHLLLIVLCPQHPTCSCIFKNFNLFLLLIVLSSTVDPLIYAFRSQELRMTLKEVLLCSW
Chain of Melanocortin receptor 3 (P33033 whole entry): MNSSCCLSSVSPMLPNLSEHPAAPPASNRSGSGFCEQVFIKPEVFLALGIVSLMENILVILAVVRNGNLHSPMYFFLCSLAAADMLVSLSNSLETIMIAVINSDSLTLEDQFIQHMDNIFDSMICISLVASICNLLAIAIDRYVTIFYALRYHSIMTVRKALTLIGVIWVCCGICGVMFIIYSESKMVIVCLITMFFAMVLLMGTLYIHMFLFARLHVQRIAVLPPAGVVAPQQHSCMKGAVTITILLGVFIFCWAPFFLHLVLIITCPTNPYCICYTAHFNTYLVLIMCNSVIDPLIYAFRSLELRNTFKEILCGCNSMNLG
Chain of Melanocortin receptor 5 (P41149 whole entry): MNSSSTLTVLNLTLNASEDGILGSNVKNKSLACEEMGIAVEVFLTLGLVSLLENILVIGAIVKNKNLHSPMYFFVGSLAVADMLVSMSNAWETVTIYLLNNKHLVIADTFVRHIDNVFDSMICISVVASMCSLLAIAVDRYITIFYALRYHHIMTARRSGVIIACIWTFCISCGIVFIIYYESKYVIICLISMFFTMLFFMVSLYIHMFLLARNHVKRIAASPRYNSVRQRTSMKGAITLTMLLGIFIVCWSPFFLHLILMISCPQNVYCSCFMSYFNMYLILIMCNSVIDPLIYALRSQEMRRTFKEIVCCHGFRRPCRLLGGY
Chain of Melanocortin receptor 4 (P56450 whole entry): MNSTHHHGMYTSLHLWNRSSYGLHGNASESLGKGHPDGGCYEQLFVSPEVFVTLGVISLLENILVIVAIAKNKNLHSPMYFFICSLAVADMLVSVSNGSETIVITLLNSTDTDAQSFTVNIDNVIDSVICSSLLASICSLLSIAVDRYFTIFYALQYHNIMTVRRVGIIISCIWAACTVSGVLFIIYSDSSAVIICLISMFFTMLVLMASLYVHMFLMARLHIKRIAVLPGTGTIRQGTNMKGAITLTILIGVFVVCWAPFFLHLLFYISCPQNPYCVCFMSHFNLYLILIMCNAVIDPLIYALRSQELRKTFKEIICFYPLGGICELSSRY
Chain of Melanocortin receptor 4 (Mus musculus) (P56450 whole entry): as above
Chain of Melanocyte-stimulating hormone receptor (Mus musculus) (Q01727 whole entry, looked up): as the sequence (Q01727 whole entry) above
Chain of Melanocortin receptor 3 (Mus musculus) (P33033 whole entry): as the sequence (P33033 whole entry) above
Chain of Melanocortin receptor 5 (Mus musculus) (P41149 whole entry): as the sequence (P41149 whole entry) above

CCCN1C(=O)C(Cc2ccccc2)NC(=O)c2ccccc21 (stereo not given)
EC50 [1]: 6.9 µM | EC50 (Melanocortin receptor 4): 35 µM | EC50 (Melanocortin receptor 5): 3.27 µM | Activity [2]: 80%

O=C1NC(Cc2c[nH]c3ccccc23)C(=O)N(Cc2ccccc2)c2ccccc21 (stereo not given)
EC50 (Melanocortin receptor 3): > 100 µM | EC50 (Melanocortin receptor 4): > 100 µM | EC50 (Melanocortin receptor 5): > 100 µM | Activity [3]: 70%

N=C(N)NCCCC1NC(=O)c2ccc(Cl)cc2N(Cc2ccccc2)C1=O (stereo not given)
Activity [4]: 60%

NC(N)=NCCCC1NC(=O)c2ccccc2N(Cc2ccccc2)C1=O (stereo not given)
EC50 [1]: 16.4 µM | EC50 (Melanocortin receptor 3): > 100 µM | EC50 (Melanocortin receptor 4): > 100 µM | EC50 (Melanocortin receptor 5): > 100 µM

NC(N)=NCCCC1NC(=O)c2ccc(Cl)cc2N(Cc2ccccc2)C1=O (stereo not given)
EC50 [1]: 1.8 µM | EC50 (Melanocortin receptor 3): 30.6 µM | EC50 (Melanocortin receptor 5): 17 µM

Cc1cccc2c1N(Cc1ccccc1)C(=O)C(Cc1cn(Cc3ccccc3)c3ccccc13)NC2=O (stereo not given)
EC50 [1]: 21.6 µM | EC50 (Melanocortin receptor 3): > 100 µM | EC50 (Melanocortin receptor 4): > 100 µM | EC50 (Melanocortin receptor 5): > 100 µM

O=C1NC(Cc2ccccc2)C(=O)N(Cc2ccc3ccccc3c2)c2cc(Cl)ccc21 (stereo not given)
EC50 [1]: 4.7 µM | EC50 (Melanocortin receptor 3): 23.3 µM | EC50 (Melanocortin receptor 5): 4.35 µM | Activity [4]: 70%

NCCCCC1NC(=O)c2ccc(Cl)cc2N(Cc2ccc3ccccc3c2)C1=O (stereo not given)
EC50 [1]: 3.4 µM | Activity [2]: 30% | Activity [4]: 30% | Activity [5]: 65%

O=C1NC(Cc2c[nH]c3ccccc23)C(=O)N(Cc2ccc3ccccc3c2)c2cc(Cl)ccc21 (stereo not given)
EC50 [1]: > 100 µM | EC50 (Melanocortin receptor 3): > 100 µM | EC50 (Melanocortin receptor 4): > 100 µM | EC50 (Melanocortin receptor 5): > 100 µM

NCCCCC1NC(=O)c2ccc(Cl)cc2N(Cc2ccccc2)C1=O (stereo not given)
EC50 [1]: 0.048 µM | EC50 (Melanocortin receptor 3): 0.32 µM | EC50 (Melanocortin receptor 4): 0.24 µM | EC50 (Melanocortin receptor 5): 0.087 µM

O=C1NC(Cc2ccccc2)C(=O)N(Cc2ccccc2-c2ccccc2)c2ccccc21 (stereo not given)
EC50 [1]: 0.23 µM | EC50 (Melanocortin receptor 3): 4.16 µM | EC50 (Melanocortin receptor 4): 1.97 µM | Activity [6]: 60% | Ratio EC50 (Mus musculus [7]): 18 | Ratio EC50 (Mus musculus [8]): 9

O=C1NC(Cc2ccccc2)C(=O)N(Cc2ccccc2)c2ccccc21 (stereo not given)
EC50 [1]: 32.9 µM | EC50 (Melanocortin receptor 3): > 100 µM | EC50 (Melanocortin receptor 4): > 100 µM | EC50 (Melanocortin receptor 5): > 100 µM

CCCCN1C(=O)C(Cc2ccccc2)NC(=O)c2ccccc21 (stereo not given)
EC50 (Melanocortin receptor 3): > 100 µM | EC50 (Melanocortin receptor 4): > 100 µM | EC50 (Melanocortin receptor 5): > 100 µM | Activity [3]: 70%
